Results published in patent US7781423B2, “Compounds to promote regeneration of bone marrow” (priority 2007, dated 2010).
Like-named read-outs stand apart in the source and are kept apart here.

Tests used:
[1] = test system: human bone marrow-derived mesenchymal stem cells; assay: Survival of mesenchymal stem cells in the absence of serum (viable cell number); type: cell-based; conditions: serum-free medium
Procedure: Bone marrow aspirates were taken from normal adult donors after an informed consent was signed. Bone marrow mesenchymal stem cells were prepared by a widely used technique as described earlier by others. Pittenger, M. F., Mackay, A. M., Beck, S. C., Jaiswal, R. K., Douglas, R., Mosca, J. D., Moorman, M. A., Simonetti, D. W., Craig, S. and Marshak, D. R., “Multilineage potential of adult human mesenchymal stem cells,” Science, 284, 143-147 (1999). […] When cells grew to about 80% confluence, they were suspended and harvested by incubating with a ready-made solution containing 0.25% trypsin and 1 mM EDTA (Sigma-Aldrich, St. Louis, Mo.) for 5 minutes at 37° C.; this cell suspension is designated as passage 1. […]
The total numbers of nucleated and viable cells were determined with a hemocytometer, using Turck's solution and trypan blue stain, respectively. […]
In the experiments reported in Table 7 and Table 8, human bone marrow-derived mesenchymal stem cells were split at 1:3 and then incubated for 24 hours in 10% fetal calf serum-containing medium to about 30-35% confluence. […] The data are expressed as mean values±std. dev. of 3 determinations.

MTT cell viability assay = type: cell-based; conditions: human, read-out: decrease of viability
Procedure: (§1) The NIH 3T3 (normal) mouse fibroblast, A431 human epidermoid adenocarcinoma, and MCF-7 human breast cancer cells were cultured in DMEM medium containing 10% FBS. The MEL-28 human melanoma cells were cultured in MEM medium containing 10% FBS. The HT-29 human colon adenocarcinoma cells were cultured in McCoy's 5a medium containing 10% FBS. The A549 human lung carcinoma cells were maintained in Ham's F12K medium containing 10% FBS. T47D cells were cultured in 12-well plates in RPMI 1640 medium supplemented with 0.2 IU bovine insulin and 10% FBS. CaOV-3 human ovarian cancer cells were cultured in DMEM containing 10% FBS. ZR-75-1 human estrogen receptor-positive breast cancer cells were maintained in RPMI 1640 medium supplemented with 10% FBS. HTB-157 human fetal fibroblasts, MEL-24 human malignant melanoma cells, Hep G2 human hepatoblastoma cells, and CaCO-2 human colon adenocarcinoma cells were maintained in Eagles's MEM containing 10% FBS. MB-231 human estrogen receptor-negative breast cancer cells were maintained in Leibovitz's L-15 medium supplemented with 10% FBS.
In the actual experiments, cells were seeded into 96-well plates and cultivated up to either ˜70-90% confluency (survival experiments) or 20-25% confluency (proliferation experiments). Then the medium was changed for serum-free medium (survival experiment) or 2% serum-containing medium (proliferation experiment). The incubation continued for 72 hours followed by the MTT assay to determine cell viability. This calorimetric assay is based on the ability of living cells, but not dead cells, to reduce 3-(4,5-dimethyl thiazol-2-yl)-2,5-diphenyltetrazolium bromide. Carmichael, J, De Graff, W. G., Gazdar, A. F., Minna, J. D. and Mitchell, J. B., “Evaluation of tetrazolium-based semiautomated calorimetric assay: Assessment of chemosensitivity testing,” Cancer Res., 47, 936-942 (1987).

[2] = test system: NIH 3T3, A431, MCF-7, MEL-28, HT-29, A549, T47D, CaOV-3, ZR-75-1, HTB-157, MEL-24, Hep G2, CaCO-2, MB-231 cells; assay: MTT survival/proliferation experiments on the panel of normal and cancer cells; type: cell-based, human, mouse; conditions: serum-free (survival) or 2% serum (proliferation); 72 hours; lower and higher (50 μM) concentration
Procedure: as §1
In the actual experiments, cells were seeded into 96-well plates and cultivated up to either ˜70-90% confluency (survival experiments) or 20-25% confluency (proliferation experiments). Then the medium was changed for serum-free medium (survival experiment) or 2% serum-containing medium (proliferation experiment). […]

healthy mice = assay: Toxicity in healthy mice; type: in vivo; conditions: for well tolerated maximal dose: mice weighing about 25 g
Procedure: Accordingly, a well tolerated maximal dose for CCompound1 or CCompound3 in mice (weighing about 25 g) is […] which corresponds to a dose of 4.6 mg/kg. Therapeutically effective concentrations of CC compounds in humans will exert significant promoting effects on bone marrow regeneration without causing toxicity in other normal healthy tissues.

[3] = single 450 μmole (about 4.6 mg/kg) or daily 400 μmole for 5 consecutive days

SMILES: Cc1c(OCC(O)C[N+](C)(C)C)cc2c(=O)c3ccccc3sc2c1C.[Cl-] (centres unmarked) [CCcompound1, [3-(3,4-Dimethyl-9-oxo-9H-thioxanthen-2-yloxy)-2-hydroxypropyl]trimethyl-ammonium chloride]
- effect on cell numbers (survival) ([1]; 10 μM): did not reach statistical significance
- effect on cell numbers (survival) ([1]; 50 μM): no effect
- cytotoxicity at 72 h, 50 μM (MTT cell viability assay; CaOV-3 ovarian cancer cells): 20 to 40%
- cytotoxicity at 72 h, 50 μM (MTT cell viability assay; Hep G2 hepatoblastoma cells): 20 to 40%
- cytotoxicity at 72 h, 50 μM (MTT cell viability assay; MEL-28 melanoma cells): 20 to 40%
- cytotoxicity at 72 h, 50 μM (MTT cell viability assay; ZR-75-1 estrogen receptor-positive breast cancer cells): 20 to 40%
- enhancement of survival or proliferation [2]: Neither the lower nor the higher concentration of CCompound1 enhanced the survival or proliferation
- well tolerated maximal dose (healthy mice): 450 μmole/animal
- well tolerated maximal dose (healthy mice; corresponds to 450 μmole/animal): 4.6 mg/kg
- change in the composition of various blood constituents (healthy mice; [3]): did not cause any significant change
- pathological alterations in the liver, brain, kidney, heart, spleen, intestine, and lung (healthy mice; [3]): did not induce significant pathological alterations
